Test results as given in ChEMBL document CHEMBL5230103, “Hydroxamic acid hybrids as the potential anticancer agents: An Overview” (Eur J Med Chem, 2020).

Legend:
AGS = test: Cytotoxicity against human AGS cells assessed as inhibition of cell growth by MTT assay; assay type: functional, cell-based
SW-620 = test: Cytotoxicity against human SW620 cells assessed as inhibition of cell growth by MTT assay; assay type: functional, cell-based
Histone deacetylase = test: Inhibition of HDAC (unknown origin); assay type: protein assay, Homo sapiens
PC-3 = test: Cytotoxicity against human PC-3 cells assessed as inhibition of cell growth by MTT assay; assay type: functional, cell-based
MOLT-4 = test: Cytotoxicity against human MOLT-4 cells assessed as inhibition of cell growth by MTT assay; assay type: functional, cell-based
K562 = test: Cytotoxicity against human K562 cells assessed as inhibition of cell growth by MTT assay; assay type: functional, cell-based
T47D = test: Cytotoxicity against human T47D cells assessed as inhibition of cell growth by MTT assay; assay type: functional, cell-based
HCT-116 = test: Cytotoxicity against human HCT-116 cells assessed as inhibition of cell growth by MTT assay; assay type: functional, cell-based
LNCaP = test: Cytotoxicity against human LNCaP cells assessed as inhibition of cell growth by MTT assay; assay type: functional, cell-based
SUP-T1 = test: Cytotoxicity against human SUP-T1 cells assessed as inhibition of cell growth by MTT assay; assay type: functional, cell-based
[1] = molecular target: cGMP-specific 3',5'-cyclic phosphodiesterase (Homo sapiens, UniProt O76074); test: Inhibition of PDE5 (unknown origin)
HT-29 = test: Cytotoxicity against human HT-29 cells assessed as inhibition of cell growth by MTT assay; assay type: functional, cell-based
[2] = Cytotoxicity against human U87 cells assessed as inhibition of cell growth by MTT assay; assay type: functional, cell-based, U-87MG ATCC; details: U-87 MG
U-251 = test: Cytotoxicity against human U-251 cells assessed as inhibition of cell growth by MTT assay; assay type: functional, cell-based
T98G = test: Cytotoxicity against human T98G cells assessed as inhibition of cell growth by MTT assay; assay type: functional, cell-based

| SMILES | IC50 (AGS) [nM] | IC50 (SW-620) [nM] | IC50 (Histone deacetylase) [nM] | IC50 (PC-3) [nM] | IC50 (MOLT-4) [nM] | IC50 (K562) [nM] | IC50 (T47D) [nM] | IC50 (HCT-116) [nM] | IC50 (LNCaP) [nM] | IC50 (SUP-T1) [nM] | IC50 [1] [nM] | IC50 (HT-29) [nM] | IC50 [2] [nM] | IC50 (U-251) [nM] | IC50 (T98G) [nM] |
| --- | --- | --- | --- | --- | --- | --- | --- | --- | --- | --- | --- | --- | --- | --- | --- |
| O=C(CCCCCN1CCN2[C@H](Cc3c([nH]c4ccccc34)[C@H]2c2ccc(Br)cc2)C1)NO | 1500 | 1500 | 14.5 | 1500 | 1500 | 1500 | 1500 | 1500 | 1500 | 1500 | 46.3 | 1500 | – | – | – |
| O=C(CCCCCNC(=O)c1cc(O)c2c(c1)C(=O)c1cccc(O)c1C2=O)NO | – | – | – | – | – | – | – | – | – | – | – | – | 5500 | 5500 | 5500 |
